The structures appear in SMILES notation.

The first experiment addresses T1, ERα (Homo sapiens, UniProt P03372).
T1 construct: made using a breast cancer cell ERα in cell western assay; host or cells: MCF7
T1 sequence (P03372 1-595): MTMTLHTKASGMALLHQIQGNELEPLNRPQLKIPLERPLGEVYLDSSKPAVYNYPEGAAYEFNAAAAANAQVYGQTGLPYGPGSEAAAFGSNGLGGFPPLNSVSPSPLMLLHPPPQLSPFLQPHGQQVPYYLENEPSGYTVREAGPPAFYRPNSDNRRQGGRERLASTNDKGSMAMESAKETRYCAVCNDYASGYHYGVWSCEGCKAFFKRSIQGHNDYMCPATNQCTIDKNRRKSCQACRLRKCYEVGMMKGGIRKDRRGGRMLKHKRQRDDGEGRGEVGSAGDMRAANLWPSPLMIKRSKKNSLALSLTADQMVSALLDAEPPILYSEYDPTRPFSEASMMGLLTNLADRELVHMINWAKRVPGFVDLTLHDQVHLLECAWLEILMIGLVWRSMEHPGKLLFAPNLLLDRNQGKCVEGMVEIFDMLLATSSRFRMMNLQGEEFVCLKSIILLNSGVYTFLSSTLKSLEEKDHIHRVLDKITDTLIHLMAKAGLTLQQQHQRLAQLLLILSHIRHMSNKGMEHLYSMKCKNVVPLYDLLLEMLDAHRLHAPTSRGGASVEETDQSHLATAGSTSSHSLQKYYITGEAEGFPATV
In words: Estrogen receptor degradation activity: breast cancer cell ERα in cell western assay in MCF7 cells. The following applies: 0.3 μM, 4 hours, relative to fulvestrant 0.1 μM positive control. Type of experiment: cell-based. How it is done: Said test involves measuring the in vitro degradation activity of the compounds of the Table 1a.
The measurements of the degradation activities were made using a breast cancer cell ERα in cell western assay as described hereunder.
MCF7 cells (ATCC) were seeded in 384 wells microplate (collagen coated) at a concentration of 10000 cells/30 μL per well in red phenol free MEM alpha medium (invitrogen) containing 5% charcoal dextran striped FBS. The following day, 9 points serial 1:5 dilution of each compound was added to the cells in 2.5 μL at final concentrations ranging from 0.3-0.0000018 μM (in table 2), or 0.1 μM for fulvestrant (using as positive control). At 4 hours post compound addition the cells were fixed by adding 25 μL of formalin (final concentration 5% formalin containing 0.1% triton) for 10 minutes at room temperature and then washed twice with PBS. Then, 50 μL of LI-COR blocking buffer containing 0.1% Triton was added to plate for 30 minutes at room temperature. LI-COR blocking buffer was removed and cells were incubated overnight at cold room with 50 μL anti-ER rabbit monoclonal antibody (Thermo scientific MA1-39540) diluted at 1:1000 in LI-COR blocking buffer containing 0.1% tween-20. Wells which were treated with blocking buffer but no antibody were used as background control. Wells were washed twice with PBS (0.1% tween-20) and incubated at 37° C. for 60 minutes in LI-COR (0.1% tween-20) containing goat anti-rabbit antibody Alexa 488 (1:1000) and Syto-64 a DNA dye (2 μM final concentration). Cells were then washed 3 times in PBS and scanned in ACUMEN explorer (TTP-Labtech). Integrated intensities in the green fluorescence and red fluorescence were measured to determine the levels of ERα and DNA respectively.
The degradation activity with respect to estrogen receptors in this test is given by the concentration which degrades 50% of the estrogen receptor (or IC50) in nM.
The % of ERα levels decrease were determined as follows: % inhibition=100*(1−(sample−fulvestrant: DMSO−fulvestrant)).
As to `O=C(O)c1ccc2c(c1)CCCC(c1ccc(Cl)cc1Cl)=C2c1cccc(O[C@H]2CCN(CCCF)C2)c1` [Compound 1a, (S)-8-(2,4-dichlorophenyl)-9-(3-((1-(3-fluoropropyl)pyrrolidin-3-yl)oxy)phenyl)-6,7-dihydro-5H-benzo[7]annulene-3-carboxylic acid], the “% Degradation At 0.3 μM” value is “Inactive”.

In the case of `O=C(O)c1ccc2c(c1)CCCC(c1ccccc1Cl)=C2c1cccc(O[C@@H]2CCN(CCCF)C2)c1` [Compound 3, (R)-8-(2-chlorophenyl)-9-(3-((1-(3-fluoropropyl)pyrrolidin-3-yl)oxy)phenyl)-6,7-dihydro-5H-benzo[7]annulene-3-carboxylic acid], the “% Degradation At 0.3 μM” value was determined as 84%.

With `O=C(O)c1ccc2c(c1)CCCC(C1CCCC1)=C2c1cccc(O[C@@H]2CCN(CCCF)C2)c1` [Compound 14, (R)-8-cyclopentyl-9-(3-((1-(3-fluoropropyl)pyrrolidin-3-yl)oxy)phenyl)-6,7-dihydro-5H-benzo[7]annulene-3-carboxylic acid], the “% Degradation At 0.3 μM” value was 77%.

Take `O=C(O)c1ccc2c(c1)CCCC(c1ccc(Cl)cc1Cl)=C2c1cccc(O[C@@H]2CCN(CCCF)C2)c1` [Compound 1, (R)-8-(2,4-dichlorophenyl)-9-(3-((1-(3-fluoropropyl)pyrrolidin-3-yl)oxy)phenyl)-6,7-dihydro-5H-benzo[7]annulene-3-carboxylic acid]: the “% Degradation At 0.3 μM” value is 85%.

Turning to `O=C(O)c1ccc2c(c1)CCCC(c1ccc(Cl)cc1F)=C2c1cccc(O[C@@H]2CCN(CCCF)C2)c1` [Compound 6, (R)-8-(4-chloro-2-fluorophenyl)-9-(3-((1-(3-fluoropropyl)pyrrolidin-3-yl)oxy)phenyl)-6,7-dihydro-5H-benzo[7]annulene-3-carboxylic acid], the “% Degradation At 0.3 μM” value was 89%.

Regarding `O=C(O)c1ccc2c(c1)CCCC(c1ccccc1)=C2c1cccc(O[C@@H]2CCN(CCCF)C2)c1` [Compound 2, (R)-9-(3-((1-(3-fluoropropyl)pyrrolidin-3-yl)oxy)phenyl)-8-phenyl-6,7-dihydro-5H-benzo[7]annulene-3-carboxylic acid], the “% Degradation At 0.3 μM” value amounted to 81%.

As to `Cc1ccc(O[C@@H]2CCN(CCCF)C2)cc1C1=C(c2ccc(Cl)cc2Cl)CCCc2cc(C(=O)O)ccc21` [Compound 24], the “% Degradation At 0.3 μM” value was 61%.

For `Oc1ccc2c(c1)SCCC(c1ccc(Cl)cc1Cl)=C2c1cccc(O[C@@H]2CCN(CCCF)C2)c1` [Compound 41, (R)-4-(2,4-dichlorophenyl)-5-(3-((1-(3-fluoropropyl)pyrrolidin-3-yl)oxy)phenyl)-2,3-dihydrobenzo[b]thiepin-8-ol], the “% Degradation At 0.3 μM” value turned out to be 75%.

Consider `O=C(O)c1ccc2c(c1)CCCC(c1ccccc1)=C2c1cccc(O[C@H]2CCN(CCCF)C2)c1` [Compound 2a, (S)-9-(3-((1-(3-fluoropropyl)pyrrolidin-3-yl)oxy)phenyl)-8-phenyl-6,7-dihydro-5H-benzo[7]annulene-3-carboxylic acid], for which the “% Degradation At 0.3 μM” value is “Inactive”.

`Cc1ccc(O[C@@H]2CCN(CCCF)C2)cc1C1=C(c2ccccc2Cl)CCCc2cc(C(=O)O)ccc21` [Compound 23, (R)-8-(2-chlorophenyl)-9-(5-((1-(3-fluoropropyl)pyrrolidin-3-yl)oxy)-2-methylphenyl)-6,7-dihydro-5H-benzo[7]annulene-3-carboxylic acid]: the “% Degradation At 0.3 μM” value turned out to be 84%.

As to `Cl.O=C(O)c1ccc2c(c1)CCCC(c1ccccc1)=C2c1cc(O[C@@H]2CCN(CCCF)C2)ccc1F` [Compound 25, (R)-9-(2-fluoro-5-((1-(3-fluoropropyl)pyrrolidin-3-yl)oxy)phenyl)-8-phenyl-6,7-dihydro-5H-benzo[7]annulene-3-carboxylic acid, hydrochloride], the “% Degradation At 0.3 μM” value stood at 77%.

As to `O=C(O)c1ccc2c(c1)CCCC(c1ccc(Cl)cc1Cl)=C2c1cccc(CC2CN(CCCF)C2)c1` [Compound 31, 8-(2,4-dichlorophenyl)-9-(3-((1-(3-fluoropropyl)azetidin-3-yl)methyl)phenyl)-6,7-dihydro-5H-benzo[7]annulene-3-carboxylic acid], the “% Degradation At 0.3 μM” value stood at 58%.

For the molecule `Cl.O=C(O)c1ccc2c(c1)CCCC(c1ccc(Cl)cc1Cl)=C2c1cccc(OC2CN(CCCF)C2)c1` [Compound 30, 8-(2,4-dichlorophenyl)-9-(3-((1-(3-fluoropropyl)azetidin-3-yl)oxy)phenyl)-6,7-dihydro-5H-benzo[7]annulene-3-carboxylic acid hydrochloride], the “% Degradation At 0.3 μM” value was 55%.

In the case of `O=C(O)c1ccc2c(c1)CCCC(c1ccc(Cl)cc1Cl)=C2c1cccc(CC2CCN(CCCF)C2)c1` (single isomer, unassigned; isomer 1) [Compound 28, 8-(2,4-dichlorophenyl)-9-(3-((1-(3-fluoropropyl)pyrrolidin-3-yl)methyl)phenyl)-6,7-dihydro-5H-benzo[7]annulene-3-carboxylic acid, Isomer 1], the “% Degradation At 0.3 μM” value is 87%.

As to `O=C(O)c1ccc2c(c1)CCCC(c1ccc(F)cc1Cl)=C2c1cccc(O[C@@H]2CCN(CCCF)C2)c1` [Compound 5, (R)-8-(2-chloro-4-fluorophenyl)-9-(3-((1-(3-fluoropropyl)pyrrolidin-3-yl)oxy)phenyl)-6,7-dihydro-5H-benzo[7]annulene-3-carboxylic acid], the “% Degradation At 0.3 μM” value worked out at 91%.

On to `FCCCN1CC[C@@H](Oc2cccc(C3=C(c4ccc(Cl)cc4Cl)CCCc4ccccc43)c2)C1` [Compound 38, (R)-3-(3-(8-(2,4-dichlorophenyl)-6,7-dihydro-5H-benzo[7]annulen-9-yl)phenoxy)-1-(3-fluoropropyl)pyrrolidine], for which the “% Degradation At 0.3 μM” value turned out to be 66%.

Regarding `Cc1c(O[C@@H]2CCN(CCCF)C2)cccc1C1=C(c2ccc(Cl)cc2Cl)CCCc2cc(C(=O)O)ccc21` [Compound 17, (R)-8-(2,4-dichlorophenyl)-9-(3-((1-(3-fluoropropyl)pyrrolidin-3-yl)oxy)-2-methylphenyl)-6,7-dihydro-5H-benzo[7]annulene-3-carboxylic acid], the “% Degradation At 0.3 μM” value worked out at 87%.

For the molecule `CC1CCC(C2=C(c3cccc(OC4CCN(CCCF)C4)c3)c3ccc(C(=O)O)cc3CCC2)CC1` (single isomer, unassigned; isomer 2) [Compound 12], the “% Degradation At 0.3 μM” value is recorded as 84%.

On to `Cl.O=C(O)c1ccc2c(c1)CCCC(C1CCC(F)(F)CC1)=C2c1cccc(O[C@@H]2CCN(CCCF)C2)c1` [Compound 10, (R)-8-(4,4-difluorocyclohexyl)-9-(3-((1-(3-fluoropropyl)pyrrolidin-3-yl)oxy)phenyl)-6,7-dihydro-5H-benzo[7]annulene-3-carboxylic acid hydrochloride], for which the “% Degradation At 0.3 μM” value was found to be 85%.

For `CC1(C)CCC(C2=C(c3cccc(O[C@@H]4CCN(CCCF)C4)c3)c3ccc(C(=O)O)cc3CCC2)CC1.Cl` [Compound 13, (R)-8-(4,4-dimethylcyclohexyl)-9-(3-((1-(3-fluoropropyl)pyrrolidin-3-yl)oxy)phenyl)-6,7-dihydro-5H-benzo[7]annulene-3-carboxylic acid, hydrochloride], the “% Degradation At 0.3 μM” value stood at 57%.

As to `FCCCN1CC[C@@H](Oc2cccc(C3=C(c4ccccc4Cl)CCCc4ccccc43)c2)C1` [Compound 39, (R)-3-(3-(8-(2-chlorophenyl)-6,7-dihydro-5H-benzo[7]annulen-9-yl)phenoxy)-1-(3-fluoropropyl)pyrrolidine], the “% Degradation At 0.3 μM” value is given as 78%.

Regarding `Cl.O=C(O)c1ccc2c(c1)CCCC(c1ccccc1)=C2c1cccc(O[C@@H]2CCN(CCCF)C2)c1F` [Compound 19, (R)-9-(2-fluoro-3-((1-(3-fluoropropyl)pyrrolidin-3-yl)oxy)phenyl)-8-phenyl-6,7-dihydro-5H-benzo[7]annulene-3-carboxylic acid, hydrochloride], the “% Degradation At 0.3 μM” value worked out at 82%.

Still in this experiment, the particulars now being: text statement on comparative compounds.
Take `O=C(O)c1ccc2c(c1)CCCC(c1ccc(Cl)cc1Cl)=C2c1cccc(O[C@H]2CCN(CCCF)C2)c1` [Compound 1a, (S)-8-(2,4-dichlorophenyl)-9-(3-((1-(3-fluoropropyl)pyrrolidin-3-yl)oxy)phenyl)-6,7-dihydro-5H-benzo[7]annulene-3-carboxylic acid]: the “degradation activity for estrogen receptors (in words)” value was “inactive”.

In the case of `O=C(O)c1ccc2c(c1)CCCC(c1ccccc1)=C2c1cccc(O[C@H]2CCN(CCCF)C2)c1` [Compound 2a, (S)-9-(3-((1-(3-fluoropropyl)pyrrolidin-3-yl)oxy)phenyl)-8-phenyl-6,7-dihydro-5H-benzo[7]annulene-3-carboxylic acid], the “degradation activity for estrogen receptors (in words)” value is “inactive”.
